Reference: paper PMC11990898, “Novel Isatin–Chalcone Hybrid Molecules: Design, Synthesis and Anti-Neuroinflammatory Activity Evaluation” (Molecules, 2025)

How the values were obtained:
Assay type in all cases: cell-based, mouse
[1] = tested on: TNF-α; assay: ELISA of TNF-α released by LPS-stimulated BV2 cells; conditions: for effect on production of TNF-α: result in words
Procedure: (§1) BV2 cells were plated in 96-well microplates at 40,000 cells per well (100 μL/well) and incubated for 24 h. Then, 50 μL of LPS solution with a final concentration of 100 ng/mL and 50 μL of compounds (diluted with medium to a final concentration of 0.75–40 μM) were added, and each concentration had 3 parallel wells. The supernatant was collected after 24 h. Then, according to the manufacturer’s instructions, the ELISA assay kit was used to measure the concentrations of IL-6 and TNF-α. The absorbance was detected at 450 nm.

[2] = tested on: NO release from LPS-stimulated BV2 cells; assay: NO release inhibition in LPS-stimulated BV2 cells (Griess method); conditions: for Nitrite (NO release amount): BV2 cells induced by LPS, Griess test; for Nitrite (NO release amount) / inhibition at 20 µM: compound at 20 μM; for IC50 / inhibition at 20 µM: Mus musculus, BV-2, LPS-stimulated BV2 cells; for IC50: 24 h; for inhibition at 20 µM: read-out: NO inhibition rate
Procedure: BV2 cells stimulated by lipopolysaccharide (LPS) lead to an increase in NO release. Therefore, we used the inhibitory ability of the target compounds on NO as a preliminary method to evaluate their anti-neuroinflammatory properties. We evaluated the inhibitory ability of isatin–chalcone hybrid derivatives 4a–t on the release of NO from BV2 cells at 20 μM. The release amount of NO was detected by the Griess method, and the actual release amount of NO was calculated based on the experimental data.
BV2 cells were plated in 96-well microplates at 40,000 cells per well (100 μL/well) and incubated for 24 h. Then, 50 μL of LPS solution with a final concentration of 100 ng/mL and 50 μL of compounds (diluted with medium to a final concentration of 0.31–20 μM) were added, and each concentration had 3 parallel wells. The NO assay kit was used to carry out nitrite assays after 24 h. The 50 μL of culture medium was mixed with the GrisR1 (50 μL) and GrisR2 (50 μL) of the NO assay kit in another new 96-well plate. The absorbance was detected at 540 nm. The percentage of inhibition of NO was obtained from the following formula: [(Rlps − RB − RC)/(Rlps − RB)] × 100, where Rlps is the release amount of only the LPS-treated group, RB is the release amount of the normal control and RC is the release amount of the test compound and LPS-treated group. The IC50 values of test compounds were calculated by linear regression plots.

[3] = tested on: BV2 microglial cells; assay: Cell viability assay (MTS) on BV2 cells; conditions: for IC50: Mus musculus, BV-2, MTS, 24 h
Procedure: (§2) BV2 microglial cells (SCSP-5208, Cell Bank, Chinese Academy of Sciences, Shanghai, China) were incubated in high-glucose DMEM supplemented with 10% fetal bovine serum and 1% penicillin and streptomycin in a humidified atmosphere of 5% CO2 at 37 °C.
(§3) BV2 cells were plated in 96-well microplates at 20,000 cells per well (100 μL/well) and incubated for 24 h. Then, 100 μL of compounds (diluted with medium to a final concentration of 1.56–100 μM) was added, and each concentration had 3 parallel wells. After 24 h, the cell viability was measured by MTS assay. The absorbance was detected at 490 nm. The percentage of viability was obtained from the following formula: ODdrug-treated/ODnormal cells × 100. The IC50 values of test compounds were calculated by linear regression plots.

[4] = tested on: IL-6; assay: ELISA of IL-6 released by LPS-stimulated BV2 cells; conditions: for effect on production of IL-6: result in words
Procedure: as §1

[5] = Cell viability assay (MTS) on BV2 cells; conditions: mouse, BV2 microglial cells, MTS
Procedure: as §2, §3

IC50 [2] [µM]	Structure (SMILES)	effect on production of TNF-α [1]	Nitrite (NO release amount) [2] [µM]	inhibition at 20 µM [2] [%]	IC50 [3] [µM]	effect on production of IL-6 [4]	reduction of TNF-α levels ([1]; compound at 1.5 μM, p < 0.0001) [%]	viability at 24 h, 3.1 µM ([5]; compound at 3.1 μM, read-out: cell viability (cell survival rate)) [%]	viability at 24 h, 6.3 μM ([5]; compound at 6.3 μM (printed 6.23 μM for 4b), read-out: cell viability (cell survival rate)) [%]	viability at 24 h, 12.5 µM ([5]; compound at 12.5 μM) [%]	viability at 24 h, 25 µM ([5]; compound at 25 μM, 24 h) [%]	cytotoxicity ([3]; under the concentration of 12.5 μM)	reduction of IL-6 levels ([4]; compound at 1.5 μM, p < 0.0001) [%]
15.7	CCOC(=O)CN1C(=O)/C(=C/C(=O)c2cc(OC)c(OC)c(OC)c2)c2ccccc21 [Compound 4j, Ethyl (E)-2-(2-oxo-3-(2-oxo-2-(3,4,5-trimethoxyphenyl)ethylidene)indolin-1-yl)acetate]	relatively weaker inhibitory effects	8.6 ± 0.1	71	71.8	relatively weaker inhibitory effects							
1.6	CCOC(=O)CN1C(=O)/C(=C/C(=O)/C=C/c2ccccc2)c2ccccc21 [Compound 4b, Ethyl 2-((E)-2-oxo-3-((E)-2-oxo-4-phenylbut-3-en-1-ylidene)indolin-1-yl)acetate]	decreased significantly	0.69 ± 0.01	98	34.6	decreased significantly	37	98.3	89.9	79.5	48	did not show obvious cytotoxicity	47
6	COc1cc(C(=O)/C=C2/C(=O)N(CC(=O)OCCCc3ccccc3)c3ccccc32)cc(OC)c1OC [Compound 5g, 3-Phenylpropyl (E)-2-(2-oxo-3-(2-oxo-2-(3,4,5-trimethoxyphenyl)ethylidene)indolin-1-yl)acetate]	relatively weaker inhibitory effects			48.5	relatively weaker inhibitory effects							
